From patent publication EP0643971A2, “Antifungal compositions consisting of an antifungal agent, e.g. antibiotic R-106I, and a fungal MDR inhibitor” (priority 1993, dated 1995)

System: Penicillium chrysogenum
Test: Potentiation of hygromycin B toxicity by trifluoroperazine, growth of regenerating protoplasts on agar
Format: cell-based
Design: key to Growth: +: growth of the Penicillium chrysogenum cells, and therefore, that the toxic effect of hygromycin B was not potentiated by TFP; -: no growth of the Penicillium chrysogenum culture, and therefore, that the toxic effect of hygromycin B was potentiated by trifluoroperazine
Conditions: for Growth: 28°C, 48 hours
Text: Protoplasts of Penicillium chrysogenum (Eli Lilly and Co.) were formed with Novozyme 234 in substantial accordance with the procedure described for Cephalosporium acremonium by Queener et al., 1985 Microbiology 1985, American Society for Microbiology, pp 468-472, and by Skatrud et al., 1987, Current Genetics, 12:337-348. During formation of the P. chrysogenum, protoplasts and subsequent cell wall regeneration, sucrose was used as an osmotic stabilizer rather than sodium chloride as described in the above references. Petri plates were prepared that contained an agar layer consisting of: yeast nitrogen base without amino acids and ammonium sulfate (1.7 g/L) (Difco Laboratories, Detroit, MI); ammonium sulfate (5 g/L); and sucrose (125 g/L); trifluoroperazine (final concentration […]; Sigma Chemical Co. Catalog #T-8516); and cadmium chloride (final concentration 3 mM/ml). Approximately 3 X 10⁷ Penicillium chrysogenum protoplasts were delivered to the surface of the solidified agar in a 4 ml soft agar overlay consisting of the following ingredients: yeast nitrogen base without amino acids and ammonium sulfate (1.7 g/L) (Difco Laboratories, Detroit, MI); ammonium sulfate (5 g/L); sucrose (125 g/L); and agar (4 g/L). The plates were incubated overnight at 15°C.
The next morning hygromycin B (final concentration […]; Boehringer Mannheim Catalog #843 555) was added to the plates in a 4 ml soft agar overlay consisting of yeast nitrogen base without amino acids and ammonium sulfate (1.7 g/L) (Difco Laboratories, Detroit, MI); ammonium sulfate (5 g/L); sucrose (125 g/L); and agar (4 g/L). The plates were incubated at 28°C for 48 hours.
In Table 2, a result of "+" indicates growth of the Penicillium chrysogenum cells, and therefore, that the toxic effect of hygromycin B was not potentiated by TFP. A result of "-" indicates no growth of the Penicillium chrysogenum culture, and therefore, that the toxic effect of hygromycin B was potentiated by trifluoroperazine.

| Compound | Growth (Hygromycin B 0 mg/ml, TFP 500 µM) | toxic effect of hygromycin B on Penicillium chrysogenum (in the presence of triflouroperazine, summary of Table 2) | Growth (Hygromycin B 0.250 mg/ml, TFP 250 µM) | Growth (Hygromycin B 1 mg/ml, TFP 500 µM) | Growth (Hygromycin B 2 mg/ml, TFP 500 µM) | Growth (Hygromycin B 3 mg/ml, TFP 500 µM) | Growth (Hygromycin B 4 mg/ml, TFP 500 µM) | Growth (Hygromycin B 5 mg/ml, TFP 0 µM) | Growth (Hygromycin B 5 mg/ml, TFP 500 µM) |
| --- | --- | --- | --- | --- | --- | --- | --- | --- | --- |
| CN1CCN(CCCN2c3ccccc3Sc3ccc(C(F)(F)F)cc32)CC1 [TFP, trifluoroperazine] | + | potentiated |  |  |  |  |  |  |  |
| CN[C@H]1C[C@@H](N)[C@H](O)[C@@H](O[C@@H]2O[C@H](CO)[C@H](O)[C@@H]3OC4(O[C@H]23)O[C@H]([C@@H](N)CO)[C@H](O)[C@H](O)[C@H]4O)[C@@H]1O (stereo partly drawn) [Hygromycin B, hygromycin B] |  |  | - | - | - | - | - | + | - |
